One experiment concerns the target Cannabinoid receptor 1 (Rattus norvegicus, UniProt P20272).
The next experiment concerns the target Cannabinoid receptor 2 (Homo sapiens, UniProt P34972).

Each structure is given as a SMILES string.

Here are results for 1 compound from BindingDB's records for doi:10.1124/jpet.103.062836 (Bayer Healthcare, 2004).

Sequence of Cannabinoid receptor 2 (P34972 whole entry): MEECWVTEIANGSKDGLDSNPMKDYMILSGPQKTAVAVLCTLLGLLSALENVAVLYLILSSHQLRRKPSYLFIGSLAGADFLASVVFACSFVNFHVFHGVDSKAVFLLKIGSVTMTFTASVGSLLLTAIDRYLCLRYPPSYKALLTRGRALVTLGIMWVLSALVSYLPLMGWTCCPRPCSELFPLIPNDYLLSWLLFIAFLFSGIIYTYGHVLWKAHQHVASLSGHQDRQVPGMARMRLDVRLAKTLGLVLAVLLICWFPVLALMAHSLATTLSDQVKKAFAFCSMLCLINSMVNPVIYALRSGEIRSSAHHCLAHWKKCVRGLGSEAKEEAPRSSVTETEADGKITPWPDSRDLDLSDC
Sequence of Cannabinoid receptor 1 (P20272 whole entry): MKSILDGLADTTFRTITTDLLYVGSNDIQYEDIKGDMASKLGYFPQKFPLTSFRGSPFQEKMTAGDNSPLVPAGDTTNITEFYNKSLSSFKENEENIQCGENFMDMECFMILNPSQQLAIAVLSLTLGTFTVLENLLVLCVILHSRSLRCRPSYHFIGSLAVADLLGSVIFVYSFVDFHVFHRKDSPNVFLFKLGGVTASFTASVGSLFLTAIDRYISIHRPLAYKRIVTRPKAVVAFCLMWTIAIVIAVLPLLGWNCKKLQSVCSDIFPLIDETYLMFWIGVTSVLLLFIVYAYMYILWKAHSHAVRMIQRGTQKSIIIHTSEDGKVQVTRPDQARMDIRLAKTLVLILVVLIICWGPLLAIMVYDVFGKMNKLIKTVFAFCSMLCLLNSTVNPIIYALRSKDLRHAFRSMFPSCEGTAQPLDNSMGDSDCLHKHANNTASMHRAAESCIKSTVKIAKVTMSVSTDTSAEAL

As for `N#Cc1c(Oc2cccc(OS(=O)(=O)CCCC(F)(F)F)c2)cccc1C(F)(F)F`, the figures for the Ki on Cannabinoid receptor 1 and at Cannabinoid receptor 2 were 55.4 nM and 45.5 nM, respectively.
